# Experimental data: PubChem BioAssay (NCI)
#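 Test compounds were applied to cells in 96-well plates for 48 hours at 5 doses. TGI is the concentration that stops growth completely.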
# How the values were obtained:
# Experiment in all cases: NCI tumour cell line growth inhibition, 48 h
# DLD-1 colon = system: DLD-1 colon
# HCC-2998 colon = system: HCC-2998 colon
# HL-60(TB) leukemia = system: HL-60(TB) leukemia
# HCT-15 colon = system: HCT-15 colon
# MALME-3M melanoma = system: MALME-3M melanoma
# SNB-78 CNS = system: SNB-78 CNS
# A498 renal = system: A498 renal
# HCT-116 colon = system: HCT-116 colon
# RPMI-8226 leukemia = system: RPMI-8226 leukemia
# UO-31 renal = system: UO-31 renal
# NCI-H460 lung = system: NCI-H460 lung
# COLO 205 colon = system: COLO 205 colon
# HOP-92 NSCLC = system: HOP-92 NSCLC
# SNB-75 CNS = system: SNB-75 CNS
# SK-MEL-28 melanoma = system: SK-MEL-28 melanoma
# HT29 colon = system: HT29 colon
# A549 NSCLC = system: A549 NSCLC
# SF-295 CNS = system: SF-295 CNS
# DMS 273 small cell lung = system: DMS 273 small cell lung
# M14 melanoma = system: M14 melanoma
# RXF 393 renal = system: RXF 393 renal
# SN12C renal = system: SN12C renal
# XF 498 CNS = system: XF 498 CNS
# IGROV1 ovarian = system: IGROV1 ovarian
# OVCAR-5 ovarian = system: OVCAR-5 ovarian
# EKVX NSCLC = system: EKVX NSCLC
# UACC-257 melanoma = system: UACC-257 melanoma
# CCRF-CEM leukemia = system: CCRF-CEM leukemia
# KM12 colon = system: KM12 colon
# CAKI-1 renal = system: CAKI-1 renal
# SF-539 CNS = system: SF-539 CNS
# SW-620 colon = system: SW-620 colon
# DMS 114 small cell lung = system: DMS 114 small cell lung
# SNB-19 CNS = system: SNB-19 CNS
# LOX IMVI melanoma = system: LOX IMVI melanoma
# K-562 leukemia = system: K-562 leukemia
# NCI-H226 lung = system: NCI-H226 lung
# SF-268 CNS = system: SF-268 CNS
# SK-MEL-2 melanoma = system: SK-MEL-2 melanoma
# SR leukemia = system: SR leukemia
# MOLT-4 leukemia = system: MOLT-4 leukemia
# NCI-H23 lung = system: NCI-H23 lung
# TK-10 renal = system: TK-10 renal
# U251 CNS = system: U251 CNS
# ACHN renal = system: ACHN renal
# KM20L2 colon = system: KM20L2 colon
# OVCAR-4 ovarian = system: OVCAR-4 ovarian
# HOP-18 NSCLC = system: HOP-18 NSCLC
# LXFL 529 NSCLC = system: LXFL 529 NSCLC
# SK-MEL-5 melanoma = system: SK-MEL-5 melanoma
# RXF-631 renal = system: RXF-631 renal
# OVCAR-8 ovarian = system: OVCAR-8 ovarian
smiles,measurement,setting,value
CSc1cc(-c2cc3ccccc3o2)oc(=O)c1C#N,TGI,DLD-1 colon,> 100 µM
same,TGI,HCC-2998 colon,> 100 µM
same,TGI,HL-60(TB) leukemia,> 100 µM
same,TGI,HCT-15 colon,> 100 µM
same,TGI,MALME-3M melanoma,> 100 µM
same,TGI,SNB-78 CNS,> 100 µM
same,TGI,A498 renal,> 100 µM
same,TGI,HCT-116 colon,> 100 µM
same,TGI,RPMI-8226 leukemia,> 100 µM
same,TGI,UO-31 renal,> 100 µM
same,TGI,NCI-H460 lung,> 100 µM
same,TGI,COLO 205 colon,> 100 µM
same,TGI,HOP-92 NSCLC,2.33 µM
same,TGI,SNB-75 CNS,> 100 µM
same,TGI,SK-MEL-28 melanoma,> 100 µM
same,TGI,HT29 colon,> 100 µM
same,TGI,A549 NSCLC,> 100 µM
same,TGI,SF-295 CNS,> 100 µM
same,TGI,DMS 273 small cell lung,> 100 µM
same,TGI,M14 melanoma,> 100 µM
same,TGI,RXF 393 renal,> 100 µM
same,TGI,SN12C renal,> 100 µM
same,TGI,XF 498 CNS,> 100 µM
same,TGI,IGROV1 ovarian,> 100 µM
same,TGI,OVCAR-5 ovarian,> 100 µM
same,TGI,EKVX NSCLC,> 100 µM
same,TGI,UACC-257 melanoma,> 100 µM
same,TGI,CCRF-CEM leukemia,> 100 µM
same,TGI,KM12 colon,> 100 µM
same,TGI,CAKI-1 renal,> 100 µM
same,TGI,SF-539 CNS,> 100 µM
same,TGI,SW-620 colon,> 100 µM
same,TGI,DMS 114 small cell lung,> 100 µM
same,TGI,SNB-19 CNS,> 100 µM
same,TGI,LOX IMVI melanoma,> 100 µM
same,TGI,K-562 leukemia,> 100 µM
same,TGI,NCI-H226 lung,4.31 µM
same,TGI,SF-268 CNS,> 100 µM
same,TGI,SK-MEL-2 melanoma,> 100 µM
same,TGI,SR leukemia,50 µM
same,TGI,MOLT-4 leukemia,> 100 µM
same,TGI,NCI-H23 lung,> 100 µM
same,TGI,TK-10 renal,73.4 µM
same,TGI,U251 CNS,> 100 µM
same,TGI,ACHN renal,> 100 µM
same,TGI,KM20L2 colon,> 100 µM
same,TGI,OVCAR-4 ovarian,> 100 µM
same,TGI,HOP-18 NSCLC,> 100 µM
same,TGI,LXFL 529 NSCLC,> 100 µM
same,TGI,SK-MEL-5 melanoma,> 100 µM
same,TGI,RXF-631 renal,> 100 µM
same,TGI,OVCAR-8 ovarian,> 100 µM
